Biological target: T1, active p38 alpha enzyme (Upstate Biotechnology) (Homo sapiens, UniProt Q16539)
T1 construct: purchased Upstate Biotechnology
Assay: p38α biochemical assay (ATP turnover, luminescent detection, Cambrex PKlight)
Details: p38α kinase; Table 1 Biological Activity
Summary of the method: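 Compounds in DMSO are added to active p38 alpha with MapkapK2 whole protein and ATP at 1.4 uM final. Reactions then run for 2 hours at 30C. A luminescent reagent is added last to quantify total ATP consumed.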

T1 sequence (Q16539 whole entry): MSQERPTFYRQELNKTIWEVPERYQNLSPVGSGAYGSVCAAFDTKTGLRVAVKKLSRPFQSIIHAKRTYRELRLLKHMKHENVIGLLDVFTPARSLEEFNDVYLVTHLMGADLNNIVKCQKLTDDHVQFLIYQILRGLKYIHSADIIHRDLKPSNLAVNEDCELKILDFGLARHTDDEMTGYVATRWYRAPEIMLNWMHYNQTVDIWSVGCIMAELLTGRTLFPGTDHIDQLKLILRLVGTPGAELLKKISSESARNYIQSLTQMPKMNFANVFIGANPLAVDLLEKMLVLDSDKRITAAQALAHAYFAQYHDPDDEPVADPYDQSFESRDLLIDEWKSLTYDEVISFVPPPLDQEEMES

| IC50 | SMILES |
| --- | --- |
| > 1000 nM | Cc1nc(-c2ccc(F)cc2)c(-c2nc(C(=O)NCCN3CCOCC3)cs2)s1 [Example 1765] |
| ≤ 1000 nM | CCOC(=O)CC(C)NC(=O)c1csc(-c2sc(C)nc2-c2ccc(F)cc2)n1 (stereo not shown) [Example 1766] |
| > 1000 nM | Cc1nc(-c2ccc(F)cc2)c(-c2nc(C(=O)NC3CCc4ccccc43)cs2)s1 (stereo not shown) [Example 1767] |
| > 1000 nM | Cc1ccc(CCNC(=O)c2csc(-c3sc(C)nc3-c3ccc(F)cc3)n2)cc1 [Example 1768] |
| > 1000 nM | Cc1ccc(C)c(CNC(=O)c2csc(-c3sc(C)nc3-c3ccc(F)cc3)n2)c1 [Example 1769] |
| > 1000 nM | Cc1ccc([C@H](C)NC(=O)c2csc(-c3sc(C)nc3-c3ccc(F)cc3)n2)cc1 [Example 1770] |
| > 1000 nM | Cc1ccc([C@@H](C)NC(=O)c2csc(-c3sc(C)nc3-c3ccc(F)cc3)n2)cc1 [Example 1771] |
| ≤ 1000 nM | Cc1nc(-c2ccc(F)cc2)c(-c2nc(C(=O)NCC(C)c3ccccc3)cs2)s1 (stereo not shown) [Example 1772] |
| > 1000 nM | Cc1nc(-c2ccc(F)cc2)c(-c2nc(C(=O)NCC(C)c3ccccc3)cs2)s1 (stereo not shown) [Example 1773] |
| > 1000 nM | Cc1nc(-c2ccc(F)cc2)c(-c2nc(C(=O)NCCCc3ccccc3)cs2)s1 [Example 1774] |
| ≤ 1000 nM | Cc1nc(-c2ccc(F)cc2)c(-c2nc(C(=O)NCc3ccc(C)c(C)c3)cs2)s1 [Example 1775] |
| > 1000 nM | Cc1nc(-c2ccc(F)cc2)c(-c2nc(C(=O)NC(C)Cc3ccncc3)cs2)s1 (stereo not shown) [Example 1776] |
| ≤ 1000 nM | Cc1nc(-c2ccc(F)cc2)c(-c2nc(C(=O)NCCc3ccc(O)cc3)cs2)s1 [Example 1777] |
| ≤ 1000 nM | Cc1nc(-c2ccc(F)cc2)c(-c2nc(C(=O)NCCOc3ccccc3)cs2)s1 [Example 1778] |
| ≤ 1000 nM | COc1ccccc1CNC(=O)c1csc(-c2sc(C)nc2-c2ccc(F)cc2)n1 [Example 1779] |
| ≤ 1000 nM | COc1ccc(CNC(=O)c2csc(-c3sc(C)nc3-c3ccc(F)cc3)n2)cc1 [Example 1780] |
| ≤ 1000 nM | COc1cccc(CNC(=O)c2csc(-c3sc(C)nc3-c3ccc(F)cc3)n2)c1 [Example 1781] |
| > 1000 nM | Cc1nc(-c2ccc(F)cc2)c(-c2nc(C(=O)NCCc3ccc(F)cc3)cs2)s1 [Example 1782] |
| ≤ 1000 nM | Cc1nc(-c2ccc(F)cc2)c(-c2nc(C(=O)NCCc3ccccc3F)cs2)s1 [Example 1783] |
| ≤ 1000 nM | Cc1nc(-c2ccc(F)cc2)c(-c2nc(C(=O)NCCc3cccc(F)c3)cs2)s1 [Example 1784] |
| ≤ 1000 nM | Cc1nc(-c2ccc(F)cc2)c(-c2nc(C(=O)NCc3cccc(Cl)c3)cs2)s1 [Example 1785] |
| ≤ 1000 nM | Cc1nc(-c2ccc(F)cc2)c(-c2nc(C(=O)NCc3ccccc3Cl)cs2)s1 [Example 1786] |
| ≤ 1000 nM | Cc1nc(-c2ccc(F)cc2)c(-c2nc(C(=O)NCc3ccc(Cl)cc3)cs2)s1 [Example 1787] |
| ≤ 1000 nM | Cc1nc(-c2ccc(F)cc2)c(-c2nc(C(=O)NCCCN3CCCC3=O)cs2)s1 [Example 1788] |
| ≤ 1000 nM | Cc1nc(-c2ccc(F)cc2)c(-c2nc(C(=O)NCc3ccc(F)cc3F)cs2)s1 [Example 1789] |
| ≤ 1000 nM | Cc1nc(-c2ccc(F)cc2)c(-c2nc(C(=O)NCc3ccc(F)c(F)c3)cs2)s1 [Example 1790] |
| ≤ 1000 nM | Cc1nc(-c2ccc(F)cc2)c(-c2nc(C(=O)NCc3cc(F)cc(F)c3)cs2)s1 [Example 1791] |
| ≤ 1000 nM | Cc1nc(-c2ccc(F)cc2)c(-c2nc(C(=O)NCCCN3CCOCC3)cs2)s1 [Example 1792] |
| > 1000 nM | Cc1nc(-c2ccc(F)cc2)c(-c2nc(C(=O)NCCN(C(C)C)C(C)C)cs2)s1 [Example 1793] |
| > 1000 nM | Cc1nc(-c2ccc(F)cc2)c(-c2nc(C(=O)NC(C)CCc3ccccc3)cs2)s1 (stereo not shown) [Example 1794] |

More lines, now with the values behind:

| SMILES | IC50 |
| --- | --- |
| Cc1nc(-c2ccc(F)cc2)c(-c2nc(C(=O)NCCC#N)cs2)s1 [Example 1713] | > 1000 nM |
| Cc1nc(-c2ccc(F)cc2)c(-c2nc(C(=O)NC3CCC3)cs2)s1 [Example 1714] | ≤ 1000 nM |
| Cc1nc(-c2ccc(F)cc2)c(-c2nc(C(=O)NCC3CC3)cs2)s1 [Example 1715] | ≤ 1000 nM |
| CCC(C)NC(=O)c1csc(-c2sc(C)nc2-c2ccc(F)cc2)n1 (stereo not shown) [Example 1716] | > 1000 nM |
| Cc1nc(-c2ccc(F)cc2)c(-c2nc(C(=O)NCC(C)C)cs2)s1 [Example 1717] | > 1000 nM |
| Cc1nc(-c2ccc(F)cc2)c(-c2nc(C(=O)NCCCO)cs2)s1 [Example 1718] | ≤ 1000 nM |
| Cc1nc(-c2ccc(F)cc2)c(-c2nc(C(=O)NC(C)CO)cs2)s1 (stereo not shown) [Example 1719] | ≤ 1000 nM |
| COCCNC(=O)c1csc(-c2sc(C)nc2-c2ccc(F)cc2)n1 [Example 1720] | > 1000 nM |
| Cc1nc(-c2ccc(F)cc2)c(-c2nc(C(=O)NC3CCCC3)cs2)s1 [Example 1721] | ≤ 1000 nM |
| CCCC(C)NC(=O)c1csc(-c2sc(C)nc2-c2ccc(F)cc2)n1 (stereo not shown) [Example 1722] | > 1000 nM |
| CCC(C)CNC(=O)c1csc(-c2sc(C)nc2-c2ccc(F)cc2)n1 (stereo not shown) [Example 1723] | > 1000 nM |
| Cc1nc(-c2ccc(F)cc2)c(-c2nc(C(=O)NC(C)C(C)C)cs2)s1 (stereo not shown) [Example 1724] | > 1000 nM |
| Cc1nc(-c2ccc(F)cc2)c(-c2nc(C(=O)NCCC(C)C)cs2)s1 [Example 1725] | ≤ 1000 nM |
| Cc1nc(-c2ccc(F)cc2)c(-c2nc(C(=O)NCCN(C)C)cs2)s1 [Example 1726] | > 1000 nM |
| COCC(C)NC(=O)c1csc(-c2sc(C)nc2-c2ccc(F)cc2)n1 (stereo not shown) [Example 1727] | ≤ 1000 nM |
| CCC(CO)NC(=O)c1csc(-c2sc(C)nc2-c2ccc(F)cc2)n1 (stereo not shown) [Example 1728] | ≤ 1000 nM |
| CCC(CO)NC(=O)c1csc(-c2sc(C)nc2-c2ccc(F)cc2)n1 (stereo not shown) [Example 1729] | ≤ 1000 nM |
| Cc1nc(-c2ccc(F)cc2)c(-c2nc(C(=O)NCCCCO)cs2)s1 [Example 1730] | ≤ 1000 nM |
| Cc1nc(-c2ccc(F)cc2)c(-c2nc(C(=O)NCc3ccco3)cs2)s1 [Example 1731] | ≤ 1000 nM |
| Cc1nc(-c2ccc(F)cc2)c(-c2nc(C(=O)NC3CCCCC3)cs2)s1 [Example 1732] | ≤ 1000 nM |
| Cc1nc(-c2ccc(F)cc2)c(-c2nc(C(=O)NCC3CCCO3)cs2)s1 (stereo not shown) [Example 1733] | ≤ 1000 nM |
| Cc1nc(-c2ccc(F)cc2)c(-c2nc(C(=O)NCCC(C)(C)C)cs2)s1 [Example 1734] | > 1000 nM |
| Cc1nc(-c2ccc(F)cc2)c(-c2nc(C(=O)NC(C)CC(C)C)cs2)s1 (stereo not shown) [Example 1735] | > 1000 nM |
| Cc1nc(-c2ccc(F)cc2)c(-c2nc(C(=O)NC3CONC3=O)cs2)s1 (stereo not shown) [Example 1736] | > 1000 nM |
| Cc1nc(-c2ccc(F)cc2)c(-c2nc(C(=O)NN3CCOCC3)cs2)s1 [Example 1737] | > 1000 nM |
| Cc1nc(-c2ccc(F)cc2)c(-c2nc(C(=O)NC(CO)C(C)C)cs2)s1 (stereo not shown) [Example 1738] | ≤ 1000 nM |

| SMILES | IC50 |
| --- | --- |
| Cc1nc(-c2ccc(F)cc2)c(-c2nc(C(=O)NCc3ccccc3)cs2)s1 [Example 1739] | ≤ 1000 nM |
| Cc1nc(-c2ccc(F)cc2)c(-c2nc(C(=O)NCc3cccnc3)cs2)s1 [Example 1740] | ≤ 1000 nM |
| Cc1nc(-c2ccc(F)cc2)c(-c2nc(C(=O)NCc3ccccn3)cs2)s1 [Example 1741] | ≤ 1000 nM |
| Cc1nc(-c2ccc(F)cc2)c(-c2nc(C(=O)NCc3ccncc3)cs2)s1 [Example 1742] | ≤ 1000 nM |
| Cc1nc(-c2ccc(F)cc2)c(-c2nc(C(=O)NCc3cccs3)cs2)s1 [Example 1743] | ≤ 1000 nM |
| Cc1nc(-c2ccc(F)cc2)c(-c2nc(C(=O)NC3CCC(C)CC3)cs2)s1 (stereo not shown) [Example 1744] | ≤ 1000 nM |
| Cc1nc(-c2ccc(F)cc2)c(-c2nc(C(=O)NCC3CCCCC3)cs2)s1 [Example 1745] | ≤ 1000 nM |
| Cc1nc(-c2ccc(F)cc2)c(-c2nc(C(=O)NC3CCCCCC3)cs2)s1 [Example 1746] | ≤ 1000 nM |
| Cc1nc(-c2ccc(F)cc2)c(-c2nc(C(=O)NC3CCCCC3C)cs2)s1 (stereo not shown) [Example 1747] | ≤ 1000 nM |
| Cc1nc(-c2ccc(F)cc2)c(-c2nc(C(=O)NCCN3CCCC3)cs2)s1 [Example 1748] | ≤ 1000 nM |
| Cc1nc(-c2ccc(F)cc2)c(-c2nc(C(=O)NN3CCN(C)CC3)cs2)s1 [Example 1749] | > 1000 nM |
| CCN(CC)CCNC(=O)c1csc(-c2sc(C)nc2-c2ccc(F)cc2)n1 [Example 1750] | ≤ 1000 nM |
| Cc1cccc(CNC(=O)c2csc(-c3sc(C)nc3-c3ccc(F)cc3)n2)c1 [Example 1751] | ≤ 1000 nM |
| Cc1nc(-c2ccc(F)cc2)c(-c2nc(C(=O)N[C@@H](C)c3ccccc3)cs2)s1 [Example 1752] | ≤ 1000 nM |
| Cc1nc(-c2ccc(F)cc2)c(-c2nc(C(=O)N[C@H](C)c3ccccc3)cs2)s1 [Example 1753] | ≤ 1000 nM |
| Cc1nc(-c2ccc(F)cc2)c(-c2nc(C(=O)NCCc3ccccc3)cs2)s1 [Example 1754] | ≤ 1000 nM |
| Cc1nc(-c2ccc(F)cc2)c(-c2nc(C(=O)NCc3ccccc3C)cs2)s1 [Example 1755] | ≤ 1000 nM |
| Cc1ccc(CNC(=O)c2csc(-c3sc(C)nc3-c3ccc(F)cc3)n2)cc1 [Example 1756] | ≤ 1000 nM |
| Cc1cnc(CNC(=O)c2csc(-c3sc(C)nc3-c3ccc(F)cc3)n2)cn1 [Example 1757] | ≤ 1000 nM |
| Cc1nc(-c2ccc(F)cc2)c(-c2nc(C(=O)NCc3cccc(F)c3)cs2)s1 [Example 1758] | ≤ 1000 nM |
| Cc1nc(-c2ccc(F)cc2)c(-c2nc(C(=O)NCc3ccc(F)cc3)cs2)s1 [Example 1759] | ≤ 1000 nM |
| Cc1nc(-c2ccc(F)cc2)c(-c2nc(C(=O)NCc3ccccc3F)cs2)s1 [Example 1760] | ≤ 1000 nM |
| Cc1nc(-c2ccc(F)cc2)c(-c2nc(C(=O)NCCCn3ccnc3)cs2)s1 [Example 1761] | ≤ 1000 nM |
| Cc1nc(-c2ccc(F)cc2)c(-c2nc(C(=O)NCCC3CCCN3C)cs2)s1 (stereo not shown) [Example 1762] | > 1000 nM |
| Cc1nc(-c2ccc(F)cc2)c(-c2nc(C(=O)NCCN3CCCCC3)cs2)s1 [Example 1763] | > 1000 nM |
| Cc1nc(-c2ccc(F)cc2)c(-c2nc(C(=O)NC(C)CCCC(C)C)cs2)s1 (stereo not shown) [Example 1764] | > 1000 nM |

Source: patent publication US20060252807A1, “Novel ortho-terphenyl inhibitors of p38 kinase and methods of treating inflammatory disorders” (Kalypsys, Inc., priority 2005, published 2006)
